According to patent publication US20250295610A1, “NEUROPROTECTIVE AGENTS FOR USE IN THE TREATMENT OF OPTIC NEUROPATHIES” (The Board of Trustees of the Leland Stanford Junior …, priority 2021, published 2025):
“Also recorded” adds a separate entry of the source.

Experiments:
[1] = test system: CHOP promoter-driven luciferase (CHOP-Luc) in HEK293T cells; assay: CHOP-Luc reporter cell-based assay (HTS and retest); design: species or system human; conditions: Tm/Tg 1 μM; for CHOP-luciferase activity induced by ER stress (Tm/Tg): compound at 10 µM, relative to DMSO (FIG. 1d); for CHOP-luciferase activity: compound at 20 μM, 24 hours (FIG. 9e)
Experimental: ER stress reporter cell lines.
Cell-based HTS. The HTS to identify CHOP expression inhibitors was performed at the Stanford High-Throughput Bioscience Center with small molecule libraries containing 4846 total known bioactive, FDA approved drugs and clinical trial compounds; libraries included Biomol FDA, Biomol ICCB, Microsource (MS) Spectrum, Sigma LOPAC, and NIH Clinical Collection (NIH-CC). All the compounds were run in 7-point dose response based on a previous publication; except the NIH Clinical collection (446 compounds) which were tested in duplicate due to the small quantity of compounds on hand. Most of the NIH-CC was screened at 10 µM, but this varied per compound. […] We used the Pin Tool to transfer 100 nL of the compounds into 50 μL final volume. Therefore, we did a 500-fold dilution of the stock plates, which were at 10, 5, 2.5, 1.25, 0.625, 0.3125, and 0.156 mM resulting in final concentrations of 20, 10, 5, 2.5, 1.25, 0.625, and 0.3125 µM (for most of the compounds but not all). The final DMSO concentration was 0.2% for all wells. Briefly, CHOP-Luc cells were seeded in 384-well plates (Greiner Bio-One […]) at a density of 2×10^5 cells per well in 40 μL medium and cultured for 24 hours before treatment with tunicamycin (Tm)+thapsigargin (Tg) at 1 μM in 10 μL medium followed by adding 100 nL of one of the testing compounds using a Staccato SciClone ALH3000 small molecule liquid handling system (Caliper Life Sciences) and V&P Scientific 384 pin tools. AeraSeal sterile adhesive microplate seals (Excel Scientific; Victorville, CA) were used to seal plates that were incubated at 5% CO2, 37° C. for 24 hours, when luciferase activity was assayed by adding 10 μL of Bright™-Glo Luciferase reagent (Promega) to each well and detected by a Tecan Infinite M1000 Pro plate reader. Percentage of CHOP-Luc inhibition=100%−(Compound value−DMSO control value)/(Tm/Tg value−DMSO control value)×100%. The compounds achieving >30% of CHOP-Luc inhibition were considered as “hits”. Luciferase activity of all the tested compounds was determined by meta-analysis of luciferase activity in different cell lines under the control of a generic or other promoters. Any compound that appeared in more than 3 non-related luciferase screens was likely a toxic compound or luciferase inhibitor and therefore eliminated. There was no true cutoff, other than an IC50<20 µM (or the highest concentration tested).

[2] = test system: RGC somata and axons, mouse ONC model; assay: Neuroprotection in traumatic ON crush (ONC) model; format: in vivo; conditions: for neuroprotection of RGCs and ONs: mouse ONC model, traumatic ON injury; for GCC thickness by OCT: mouse ONC, intravitreal 2 μl of 2 mM once + i.p. 15 mg/kg daily, vs DMSO
Experimental: (§1) ON crush model. The ON was exposed intraorbitally while care was taken not to damage the underlying ophthalmic artery, and crushed with a jeweler's forceps (Dumont #5; Fine Science Tools, Foster City, California) for 5 seconds approximately 0.5 mm behind the eyeball. Eye ointment containing neomycin (Akorn, Somerset, New Jersey) was applied to protect the cornea after surgery. For compound treatment, each eye received intravitreal injection with 2 μl of 2 mM test compounds once and intraperitoneal (i.p.) injection daily (15 mg/kg) for 14 days after ONC.

[3] = test system: ONC-induced ER stress in RGCs; assay: ER stress molecules in RGCs and ONs after ON crush (ONC); conditions: mouse, after traumatic ON injury, in vivo application
Experimental: Protein Preparation and Immunoblotting. Cell and tissue lysates were prepared in RIPA buffer (Themo Fisher Scientific, 89901) and supplemented with Halt Protease inhibitor cocktail (Themo Fisher Scientific, PI78437). The total protein concentration of lysates was measured by the Pierce BCA Protein Assay Kit (Thermo Fisher Scientific, 23227). 20 μg protein of each sample were denatured at 95° C. for 15 min in 100 mM DTT+1× Laemmli buffer before being separated by SDS-PAGE. We then transferred the protein samples to 0.2 μm nitrocellulose membranes (Bio-Rad, 1610097) and blocked with 5% BSA for 2 hours. Subsequently, the membranes were incubated with primary antibodies (1:1000) overnight at 4° C. After washing in TBST, these membranes were incubated with horseradish peroxidase-conjugated secondary antibodies (Cell Signaling, 7074S and 7076S, 1:1000) and visualized using a GE-A1600 imaging system. Images were quantified with ImageJ software. The primary antibodies used were PERK (Cell Signaling, 3192S), p-PERK (Cell Signaling, 3179S), eIF2a (Cell Signaling, 5324S), p-eIF2a (Cell Signaling, 3597L), ATF4 (Cell Signaling, 11815S), CHOP (Cell Signaling, 2895S), ATF6 (Cell Signaling, 65880T), IRE1a (Cell Signaling, 3294T), IRE1 (phosphor-S724) (Thermo Fisher, PA116927), phospho-SAPK/JNK (Thr183/Tyr185) (Cell Signaling, 9251S), phospho-p38 MAPK (Thr180/Tyr182) (Cell Signaling, 9215S), β-Actin (sigma, A5441), XBP-1s (Biolegend, 647502), XBP-1 (Santa Cruz, sc-8501), anti-RBPMS (Custom made at ProSci Inc).
as §1, with “ONC. […]” for “ONC.”

[4] = test system: three UPR pathways induced by ER stress (Tm/Tg) in HEK293T cells; assay: UPR signaling cascades in HEK293T cells (immunoblot, RT-PCR, qPCR); format: cell-based, human; conditions: Tm/Tg 1 μM; for UPR pathways induced by ER stress: HEK293T cells, compound 10 μM; for XBP-1 mRNA splicing: RT-PCR
RGCs expressing D4ER = conditions: mouse retina explants after ONC
Experimental: Ex vivo ER Ca^2 + imaging in retina explants. ER calcium levels were measured using the Forster resonance energy transfer (FRET)-based ER targeted calcium sensor, D4ER. […] For imaging, retinas were dissected out at 3, 7 or 14dpc and plated onto laminin (Sigma, L2020) and poly-D-lysin-coated glass bottom dishes (MatTek, P35GC1.510C) and maintained in Neurobasal-A medium (ThermoFisher Scientific, 10888022) supplemented with L-glutamine (Gibco, 25030-081), penicillin/streptomycin (Gibco, 15140122) and B-27 (ThermoFisher Scientific, 0080085SA). Retina explants were imaged using a Zeiss LSM 800 microscope. ER [Ca^2 +] levels were determined by exciting D4ER at 440 nm to record the emitted light at 465-485 nm and 530-550 nm, and analyzed with ImageJ.

[5] = test system: naïve mouse retinas and ON; conditions: one month after systemic administration
Experimental: Immunohistochemistry of whole mount and cross sections of retina. After perfusion fixation with 4% PFA in PBS, mice eyeballs and ONs were dissected out and post-fixed with 4% PFA for 2 hours at room temperature. Retinas were dissected out for whole mount retina immunostaining. For cryo-section with Leica cryostat, the eyeballs and ONs were embedded in tissue-tek OCT (Sakura) on dry ice for subsequent cryo-section. The sections were blocked with 10% goat serum (Sigma, G9023) for 2 hours before incubating with primary antibodies: RBPMS 1:4000, others 1:200 overnight at 4° C. […]
RGC counting. Whole-mount retinas were immunostained with the RBPMS antibody, 6-8 fields randomly sampled from peripheral regions of each retina using a 40× lens with a Zeiss M2 epifluorescence microscope, and RBPMS+RGCs counted by Volocity software (Quorum Technologies). The percentage of RGC survival was calculated as the ratio of surviving RGC numbers in injured eyes compared to contralateral uninjured eyes. The investigators who counted the cells were masked to the treatment of the samples.
ON semi-thin sections and quantification of surviving axons. […] Two areas of 21.4 μm×29.1 μm were cropped from the center of each image, and the surviving axons within the designated areas counted manually using ImageJ. […]

HEK293T cells = HEK293T cells expressing jGCaMP7s, Tm/Tg 1 μM
Experimental: HEK293T cells were seeded at 10% confluence the day before transfection in poly-D-lysin-coated glass bottom 35 mm dishes (MatTek, P35GC1.510C). Two hours prior to transfection, media was removed and 1 mL of FBS-free DMEM media was added to each well. We then mixed 2 μg of the jGCaMP7s plasmid in 100 μl DMEM. In a separate tube, we diluted 4 μl PolyJet™ (SignaGen Laboratories, SL100688) reagent in 100 μl with DMEM, and incubate for 10 minutes. The complete mixture of DNA and PolyJet was incubated for another 15 min before being added to the HEK293T cells. Six hours later, the media was changed to 1 ml/well culture media. The next day, cytosolic Ca^2 + was imaged in cells transiently transfected with jGCaMP7s through a Zeiss LSM 800 confocal microscope. Dynamic intracellular Ca^2 + influx in response to Tm/Tg-induced ER stress was measured every 10 seconds for 100 seconds before Tm/Tg treatment to acquire baseline fluorescence (F0) and for 400 seconds after Tm/Tg administration to acquire F1. ΔF=F1−F0. Data were analyzed with ImageJ.

[6] = mouse, 6 and 24 hours after injection
Experimental: Retinal tissues were homogenized with 100 μL of pre-chilled 20% acetonitrile and then diluted 2-fold with blank mouse plasma. An aliquot of 20 μL of diluted retina homogenate was extracted with 100 μL of methanol: acetonitrile (5:95, v: v) containing the internal standard (Verapamil). The mixture was shaken on a shaker for 15 minutes and then centrifuged at 3220 g for 15 minutes. An aliquot of 70 μL of the supernatant was mixed with 70 μL of water for the injection to the LC-MS. Calibration standards and quality control samples were prepared by spiking 2 μL of the test compound into 18 μL of blank mouse plasma, and the resulting plasma was processed with the unknown samples in the same batch. The extracts were analyzed by a Shimadzu LC-30AD interfaced to a Sciex API 5000 system. The extracts were injected onto an ACE 3 C18 column (50×2.1 mm, 3.0 μm) and separated by the gradient elution using water with 10 mM ammonium acetate (A) and acetonitrile with 0.1% formic acid (B) as mobile phases. The gradient program started at 10% B, held for 0.2 min, ramped to 95% B at 1.5 min, remained at 95% at 2.4 min, dropped to 10% B at 2.45 min, and stayed at 10% B till 3.2 min. […] The calibration curve fitted by linear regression was used to quantify the analytes in the matrix using Analyst software 1.6.2 (Sciex).

[7] = test system: XBP-1-Luc HEK293T reporter cell line (IRE1α activity and XBP-1 splicing); conditions: Tm/Tg 1 μM, 24 hours
RGCs expressing jGCaMP7s = conditions: living mice, SLO, early and later time points after ONC
Experimental: In vivo RGC Ca^2 + imaging with SLO. The mice were intravitreally injected with AAV2-mSncg-jGCaMP7s (9×10^9 vg/retina) 4 weeks before imaging. The mice were anesthetized by xylazine and ketamine after dark adaptation for 30 minutes. Mydriasis was achieved by applying a drop of 1% tropicamide solution and a drop of 2.5% phenylephrine hydrochloride solution, which prevents pupillary contraction during recording. Right after ON crush, the mice were placed on a 3D-printed mouse holder with a 37° C. heater, and a custom-made+10D mouse contact lens (3.0 mm diameter, 1.6 mm BC, PMMA clear, Advanced Vision Technologies) attached to keep the cornea from drying. The retinal fundus was imaged by the Heidelberg Spectralis SLO/OCT system (Heidelberg Engineering, Germany) with a 55° lens using the fluorescein angiography scanning mode under the same sensitivity (sensitivity 75-85) and high-resolution (1536×1536 pixels).

[8] = test system: visual function, mouse SOHU glaucoma model; assay: Visual function (PERG, OKR) in SOHU glaucoma model; format: in vivo; conditions: 3wpi, vs DMSO
Experimental: Control groups received the same volume of DMSO as vehicle control.
Pattern Electroretinogram (PERG) recording. After anesthetization and pupil dilation, PERG of both eyes was recorded simultaneously with the Miami PERG system (Intelligent Hearing Systems, Miami, Florida) according to manufacturer's instructions. Two consecutive recordings of 200 traces were averaged to achieve one readout; each trace recorded up to 1020 ms. The first positive peak in the waveform was designated as P1 and the second negative peak as N2. The amplitude was measured from P1 to N2.
Optokinetic Tracking Response (OKR). Mice were placed on a platform in the center of four 17-inch LCD computer monitors (Dell, Phoenix, AZ), with a video camera above the platform to capture the movement of the mouse. A rotating cylinder with vertical sine wave grating was computed and projected to the four monitors by OptoMotry software (Cere-bralMechanics Inc, Lethbridge, Alberta, Canada). […] The maximum frequency (cycle/degree) that the mouse could track was identified and recorded by investigators masked to treatment. The relative percentages of visual acuity were calculated as the ratio of maximum frequency in disease eye compared to contralateral control eye.

[9] = test system: CHO luciferase reporter cell line driven by murine CHOP promoter; conditions: different CHO luciferase reporter cell line; cited from earlier work
[10] = HEK293T, immunoblot, 10 μM, 24 hours

Compound	CHOP-luciferase activity induced by ER stress (Tm/Tg) ([1]; 24 hours)	neuroprotection of RGCs and ONs [2]	CHOP-luciferase activity [1]	GCC thickness by OCT ([2]; 14dpc)	RGC ER stress [3]	UPR pathways induced by ER stress [4]	further results
Cn1cc(-c2ccc3c(c2)CCN3C(=O)Cc2cccc(C(F)(F)F)c2)c2c(N)ncnc21 [GSK2606414]							CHOP-luciferase activity induced by Tm/Tg, reference compounds ([1]; FIG. 1d and FIG. 9e (10 µM and 20 μM), 24 hours): significantly inhibited
O=C(COc1ccc(Cl)cc1)NC1CCC(NC(=O)COc2ccc(Cl)cc2)CC1 (stereo not drawn) [ISRIB]	no effect; also recorded: did not have a significant inhibition effect	provided neuroprotection in the ONC mouse model, to a lesser degree than maprotiline; also recorded: significant neuroprotection					
COc1ccc2c(c1)CC[C@@H]1[C@@H]2CC[C@]2(C)[C@@H](NCCCCCCN3C(=O)C=CC3=O)CC[C@@H]12 [U-73122]							protection of RGC axons ([2]; mouse, after ONC injury, 14dpc): protected; protection of RGC somata ([2]; mouse, after ONC injury, 14dpc): protected
CN(C)CCC=C1c2ccccc2CCc2ccccc21 [amitriptyline]			inhibited				
Clc1ccc2c(c1)C(N1CCNCC1)=Nc1ccccc1O2 [amoxapine]	significantly inhibited	significantly protects		significantly thicker	effectively inhibits	inhibit all three UPR pathways	XBP-1 mRNA splicing ([4]; HEK293T, 10 μM, 24 hours): significantly inhibited
CN(C)CCCN1c2ccccc2CCc2ccc(Cl)cc21 [clomipramine]			inhibited				
CNCCCN1c2ccccc2CCc2ccccc21 [desipramine]			inhibited				
Clc1ccc2c(c1)CCc1cccnc1C2=C1CCNCC1 [desloratadine]		significantly protects		significantly thicker	effectively inhibits	inhibit all three UPR pathways	JNK phosphorylation [4, 10]: significantly inhibited
CNCCCC12CCC(c3ccccc31)c1ccccc12 [maprotiline]	significantly inhibited	significantly protects		significantly thicker	effectively inhibits	inhibit all three UPR pathways	ER Ca2+ concentration of RGCs after ONC (D4ER FRET) (RGCs expressing D4ER): maintained ER Ca^2 + concentration at much higher levels; RGC or ON degeneration [5]: no RGC or ON degeneration; immune cell infiltration in retina and ON [5]: no immune cell infiltration; Tm/Tg-induced intracellular Ca2+ influx (HEK293T cells): significantly blocked; maprotiline in the retina after i.p. injection (LC-MS) [6]: presence of maprotiline in the retina; XBP-1 splicing induced by Tm/Tg (XBP-1s-Luc) [7]: dose-dependent inhibition; intra-RGC Ca2+ levels after ONC (RGCs expressing jGCaMP7s): significantly decreased; amplitude of PERG [8]: improved; visual acuity (OKR) [8]: improved; downstream genes of UPR at the mRNA levels (qPCR) ([4]; HEK293T, 12 hours, 10 µM): the most striking modulation; XBP-1 mRNA splicing ([4]; HEK293T, 10 μM, 24 hours): significantly inhibited; IRE1α phosphorylation [4, 10]: inhibited; JNK phosphorylation [4, 10]: significantly inhibited
CN1CCN(CCCN2c3ccccc3Sc3ccc(C(F)(F)F)cc32)CC1 [trifluoperazine]			inhibited				CHOP inhibitor in a previous study [9]: CHOP inhibitor
